Measured values from US9434711B2 (Janssen Pharmaceutica, NV, priority 2007, dated 2016).

Biological target: canine TRPM8 (Canis lupus familiaris, UniProt Q1A7N1)
Test: In Vitro Canine TRPM8 Functional Assay (Ca2+ fluorescence, icilin activation)
Format: cell-based
Conditions: for IC50: HEK293 cells stably expressing canine TRPM8, icilin activation, eight-point dose-response, read-out: IC50; for inhibition at 0.2 µM: compound at 0.2 μM, read-out: % Inh @ 0.2; for inhibition at 0.2 µM / inhibition at 0.5 µM: canine TRPM8, icilin activation; for inhibition at 0.5 µM: compound at 0.5 μM, read-out: % Inh @ 0.5
How it was run: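 HEK293 cells stably expressing canine TRPM8 loaded with Calcium 3 dye; compound added and Ca2+ fluorescence monitored 5 min before icilin at a final level giving ~80% maximal response, read on FLIPR or FDSS. EC50 or IC50 from eight-point dose-response, quadruplicate wells per point.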

Chain of canine TRPM8 (Q1A7N1 1-1104): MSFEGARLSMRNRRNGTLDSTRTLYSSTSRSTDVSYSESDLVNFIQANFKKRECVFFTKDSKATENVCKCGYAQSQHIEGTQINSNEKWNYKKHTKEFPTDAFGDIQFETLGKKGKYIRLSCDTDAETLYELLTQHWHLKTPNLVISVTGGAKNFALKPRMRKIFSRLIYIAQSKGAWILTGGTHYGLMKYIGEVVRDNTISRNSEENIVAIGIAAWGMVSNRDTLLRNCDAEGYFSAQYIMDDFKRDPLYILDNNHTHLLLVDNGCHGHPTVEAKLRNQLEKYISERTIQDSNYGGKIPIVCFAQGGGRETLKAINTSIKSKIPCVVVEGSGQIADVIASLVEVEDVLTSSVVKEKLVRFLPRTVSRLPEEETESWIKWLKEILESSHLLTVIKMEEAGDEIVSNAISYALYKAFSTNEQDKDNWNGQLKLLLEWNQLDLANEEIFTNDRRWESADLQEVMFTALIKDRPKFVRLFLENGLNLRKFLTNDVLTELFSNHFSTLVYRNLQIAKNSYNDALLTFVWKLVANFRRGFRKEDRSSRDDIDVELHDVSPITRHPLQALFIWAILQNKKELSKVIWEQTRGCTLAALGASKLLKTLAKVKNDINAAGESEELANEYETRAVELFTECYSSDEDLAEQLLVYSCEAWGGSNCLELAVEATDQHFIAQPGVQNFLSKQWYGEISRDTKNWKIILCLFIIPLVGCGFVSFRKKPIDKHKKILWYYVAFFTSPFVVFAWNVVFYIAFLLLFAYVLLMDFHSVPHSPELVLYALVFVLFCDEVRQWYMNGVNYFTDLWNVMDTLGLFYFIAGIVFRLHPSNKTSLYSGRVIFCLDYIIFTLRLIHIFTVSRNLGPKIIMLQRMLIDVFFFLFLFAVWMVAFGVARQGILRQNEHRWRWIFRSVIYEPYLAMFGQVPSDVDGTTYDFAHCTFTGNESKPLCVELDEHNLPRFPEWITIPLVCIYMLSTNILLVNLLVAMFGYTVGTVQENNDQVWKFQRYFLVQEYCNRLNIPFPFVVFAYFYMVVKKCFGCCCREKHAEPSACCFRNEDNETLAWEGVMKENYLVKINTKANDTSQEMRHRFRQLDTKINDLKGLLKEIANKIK

Row | SMILES | IC50 [nM] | inhibition at 0.2 µM [%] | inhibition at 0.5 µM [%]
1 | CCS(=O)(=O)N(Cc1ccc(F)c(C(F)(F)F)c1)c1sc2ccccc2c1C(C)O (stereo not shown) [Compound 220, N-(4-Fluoro-3-trifluoromethyl-benzyl)-N-[3-(1-hydroxy-ethyl)-benzo[b]thiophen-2-yl]-ethanesulfonamide] | 1.2 | 98 | 99
2 | CCS(=O)(=O)N(Cc1ccc(F)c(F)c1)c1sc2ccccc2c1C(C)O (stereo not shown) [Compound 221, N-(3,4-Difluoro-benzyl)-N-[3-(1-hydroxy-ethyl)-benzo[b]thiophen-2-yl]-ethanesulfonamide] | 5 | 92 | 
3 | CC(O)c1c(N(Cc2ccc(F)c(F)c2)S(=O)(=O)c2ccccc2)sc2ccccc12 (stereo not shown) [Compound 222, N-(3,4-Difluoro-benzyl)-N-[3-(1-hydroxy-ethyl)-benzo[b]thiophen-2-yl]-benzenesulfonamide] | 1.7 | 95 | 
4 | CC(O)c1c(N(Cc2ccc(F)c(C(F)(F)F)c2)S(=O)(=O)c2ccccc2)sc2ccccc12 (stereo not shown) [Compound 223, N-(4-Fluoro-3-trifluoromethyl-benzyl)-N-[3-(1-hydroxy-ethyl)-benzo[b]thiophen-2-yl]-benzenesulfonamide] | 2.3 | 96 | 
5 | CC(O)c1c(N(Cc2ccc(F)c(C(F)(F)F)c2)S(C)(=O)=O)sc2ccccc12 (stereo not shown) [Compound 224, N-(4-Fluoro-3-trifluoromethyl-benzyl)-N-[3-(1-hydroxy-ethyl)-benzo[b]thiophen-2-yl]-methanesulfonamide] | 1 | 100 | 
6 | CC(O)c1c(N(Cc2ccc(F)c(F)c2)S(C)(=O)=O)sc2ccccc12 (stereo not shown) [Compound 225, N-(3,4-Difluoro-benzyl)-N-[3-(1-hydroxy-ethyl)-benzo[b]thiophen-2-yl]-methanesulfonamide] | 4 | 98 | 
7 | CCS(=O)(=O)N(Cc1ccc(F)c(F)c1)c1sc2ccccc2c1C(C)(C)O [Compound 226, N-(3,4-Difluoro-benzyl)-N-[3-(1-hydroxy-1-methyl-ethyl)-benzo[b]thiophen-2-yl]-ethanesulfonamide] | 2 | 99 | 
8 | CCS(=O)(=O)N(Cc1ccc(F)c(C(F)(F)F)c1)c1sc2ccccc2c1C(C)(C)O [Compound 227, N-(4-Fluoro-3-trifluoromethyl-benzyl)-N-[3-(1-hydroxy-1-methyl-ethyl)-benzo[b]thiophen-2-yl]-ethanesulfonamide] | 0.6 | 101 | 
9 | CC(=O)c1c(N(Cc2ccc(F)c(C(F)(F)F)c2)S(C)(=O)=O)sc2ccccc12 [Compound 228, N-(3-Acetyl-benzo[b]thiophen-2-yl)-N-(4-fluoro-3-trifluoromethyl-benzyl)-methanesulfonamide] | 6 | 101 | 
10 | CC(=O)c1c(N(Cc2ccc(F)c(F)c2)S(C)(=O)=O)sc2ccccc12 [Compound 229, N-(3-Acetyl-benzo[b]thiophen-2-yl)-N-(3,4-difluoro-benzyl)-methanesulfonamide] | 21 | 99 | 
11 | CCOC(=O)CCCCCN(c1sc2ccccc2c1Br)S(=O)(=O)c1ccccc1 [Compound 230, N-(3-Bromo-benzo[b]thiophen-2-yl)-N-(5-carboethoxy-pentyl)benzenesulfonamide] | 12.9 | 100 | 
12 | CCCCN(c1sc2ccccc2c1Br)S(=O)(=O)c1ccccc1 [Compound 231, N-(3-Bromo-benzo[b]thiophen-2-yl)-N-(butyl)-benzenesulfonamide] | 29 |  | 95
13 | O=S(=O)(c1ccccc1)N(CC1CCCCC1)c1sc2ccccc2c1Br [Compound 232, N-(3-Bromo-benzo[b]thiophen-2-yl)-N-(cyclohexylmethyl)-benzenesulfonamide] | 74 |  | 94
14 | O=S(=O)(c1ccccc1)N(CCc1ccccc1)c1sc2ccccc2c1Br [Compound 233, N-(3-Bromo-benzo[b]thiophen-2-yl)-N-(phenethyl)-benzenesulfonamide] | 22 |  | 93
15 | CC(C)(C)OCCN(c1sc2ccccc2c1Br)S(=O)(=O)c1ccccc1 [Compound 234, N-(3-Bromo-benzo[b]thiophen-2-yl)-N-(2-tert-butoxy-ethyl)-benzenesulfonamide] | 10 |  | 93
16 | O=S(=O)(c1ccccc1)N(C[C@@H](O)CO)c1sc2ccccc2c1Br [Compound 235, (R)—N-(3-Bromo-benzo[b]thiophen-2-yl)-N-(2,3-dihydroxy-propyl)-benzenesulfonamide] |  |  | 51
17 | O=C1CCCN1CCN(c1sc2ccccc2c1Br)S(=O)(=O)c1ccccc1 [Compound 236, N-(3-Bromo-benzo[b]thiophen-2-yl)-N-[2-(2-oxo-pyrrolidin-1-yl)-ethyl]-benzenesulfonamide] |  |  | 68

Continued, values first:

Row | IC50 [nM] | inhibition at 0.2 µM [%] | inhibition at 0.5 µM [%] | SMILES
18 | 24.8 | 87 | 92 | O=S(=O)(c1ccccc1)N(CCN1CCOCC1)c1sc2ccccc2c1Br [Compound 237, N-(3-Bromo-benzo[b]thiophen-2-yl)-N-(2-morpholin-4-yl-ethyl)-benzenesulfonamide]
19 | 93 |  | 96 | CN(C)CCN(c1sc2ccccc2c1Br)S(=O)(=O)c1ccccc1 [Compound 238, N-(3-Bromo-benzo[b]thiophen-2-yl)-N-(2-dimethylamino-ethyl)-benzenesulfonamide]
20 | 92 |  | 96 | CS(=O)(=O)CCN(c1sc2ccccc2c1Br)S(=O)(=O)c1ccccc1 [Compound 239, N-(3-Bromo-benzo[b]thiophen-2-yl)-N-(2-methanesulfonyl-ethyl)-benzenesulfonamide]
21 |  |  | 43 | O=C1NCCN1CCN(c1sc2ccccc2c1Br)S(=O)(=O)c1ccccc1 [Compound 240, N-(3-Bromo-benzo[b]thiophen-2-yl)-N-[2-(2-oxo-imidazolidin-1-yl)-ethyl]-benzenesulfonamide]
22 | 106 |  | 97 | CN1CCC[C@H]1CN(c1sc2ccccc2c1Br)S(=O)(=O)c1ccccc1 [Compound 241, (S)—N-(3-Bromo-benzo[b]thiophen-2-yl)-N-(1-methyl-pyrrolidin-2-ylmethyl)-benzenesulfonamide]
23 | 38.2 | 95 |  | O=S(=O)(c1ccccc1)N(CC(F)F)c1sc2ccccc2c1Br [Compound 242, N-(3-Bromo-benzo[b]thiophen-2-yl)-N-(2,2-difluoro-ethyl)-benzenesulfonamide]
24 | 38 | 98 |  | COC(=O)CN(c1sc2ccccc2c1Br)S(=O)(=O)c1ccccc1 [Compound 243, N-(3-Bromo-benzo[b]thiophen-2-yl)-N-(carbomethoxymethyl)-benzenesulfonamide]
25 |  | 100 |  | COC(=O)[C@@H](C)CN(c1sc2ccccc2c1Br)S(=O)(=O)c1ccccc1 [Compound 244, N-(3-Bromo-benzo[b]thiophen-2-yl)-N-[2(S)-methyl-2-carbomethoxy-ethyl]-benzenesulfonamide]
26 |  | 102 |  | COC(=O)[C@H](C)CN(c1sc2ccccc2c1Br)S(=O)(=O)c1ccccc1 [Compound 245, N-(3-Bromo-benzo[b]thiophen-2-yl)-N-[2(R)-methyl-2-carbomethoxy-ethyl]-benzenesulfonamide]
